{"source": "ChEMBL document CHEMBL4823283", "about": "“Vomifoliol isolated from mangrove plant Ceriops tagal inhibits the NFAT signaling pathway with CN as the target enzyme in vitro” (Bioorg Med Chem Lett, 2021)", "key": {"[1]": {"tested_on": "Splenocyte", "assay": "Cytotoxicity against mouse splenocytes assessed as cell survival at 50 to 100 uM measured after 48 hrs by CCK-8 assay relative to control", "format": "functional", "conditions": "dose 50-100 µM"}, "[2]": {"tested_on": "Jurkat", "assay": "Cytotoxicity against human Jurkat cells assessed as cell survival at 1 to 40 uM measured after 48 hrs by MTT assay relative to control", "format": "functional", "conditions": "dose 1-40 µM"}, "[3]": {"tested_on": "Jurkat", "assay": "Cytotoxicity against human Jurkat cells assessed as inhibition of PMA/ionomycin-induced proliferation measured after 48 hrs by MTT assay", "format": "functional, cell-based"}, "[4]": {"tested_on": "Splenocyte", "assay": "Cytotoxicity against mouse splenocytes assessed as cell survival in presence of ConA measured after 44 hrs by CCK-8 assay", "format": "functional, cell-based"}, "[5]": {"assay": "Inhibition of calcineurin (unknown origin)", "set-up": "species or system Homo sapiens"}, "[6]": {"molecular_target": "T1, Nuclear factor of activated T-cells, cytoplasmic 1 (Homo sapiens) (UniProt O95644)", "T1 sequence (whole entry)": "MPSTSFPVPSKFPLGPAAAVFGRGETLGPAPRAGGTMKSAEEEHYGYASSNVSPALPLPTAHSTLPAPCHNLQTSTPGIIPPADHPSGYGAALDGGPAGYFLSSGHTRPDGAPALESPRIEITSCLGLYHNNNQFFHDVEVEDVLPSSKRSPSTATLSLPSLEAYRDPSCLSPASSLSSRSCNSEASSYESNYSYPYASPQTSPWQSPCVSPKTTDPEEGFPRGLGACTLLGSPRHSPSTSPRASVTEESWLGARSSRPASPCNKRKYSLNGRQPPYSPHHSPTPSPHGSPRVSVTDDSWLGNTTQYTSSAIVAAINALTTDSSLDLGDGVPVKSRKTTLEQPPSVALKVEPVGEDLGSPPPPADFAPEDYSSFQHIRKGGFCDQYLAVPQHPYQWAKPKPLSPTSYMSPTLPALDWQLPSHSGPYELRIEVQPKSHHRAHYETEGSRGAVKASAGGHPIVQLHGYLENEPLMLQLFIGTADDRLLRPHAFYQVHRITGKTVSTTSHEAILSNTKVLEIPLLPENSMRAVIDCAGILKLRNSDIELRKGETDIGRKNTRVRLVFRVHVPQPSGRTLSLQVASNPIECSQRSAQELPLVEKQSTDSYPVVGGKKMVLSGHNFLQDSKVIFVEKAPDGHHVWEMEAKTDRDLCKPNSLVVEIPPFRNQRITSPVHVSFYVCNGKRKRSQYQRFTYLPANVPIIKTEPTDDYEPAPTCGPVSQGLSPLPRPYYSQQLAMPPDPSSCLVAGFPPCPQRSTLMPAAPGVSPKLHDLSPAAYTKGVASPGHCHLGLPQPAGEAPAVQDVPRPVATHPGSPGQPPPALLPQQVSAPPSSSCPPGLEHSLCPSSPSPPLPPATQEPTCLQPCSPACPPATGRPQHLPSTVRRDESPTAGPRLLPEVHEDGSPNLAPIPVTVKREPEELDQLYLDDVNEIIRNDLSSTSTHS", "assay": "Inhibition of human NFAT-1 in human Jurkat cells assessed as decrease of PMA/ionomycin-induced NFAT dephosphorylation measured after 44 hrs by western blot assay", "format": "cell-based", "conditions": "dose 5-25 µM"}, "[7]": {"molecular_target": "T1, Nuclear factor of activated T-cells, cytoplasmic 1 (Homo sapiens)", "assay": "Inhibition of human NFAT-1 in human Jurkat cells assessed as decrease of PMA/ionomycin-induced IL-2 concentration measured after 44 hrs by western blot assay", "format": "cell-based", "conditions": "dose 5-25 µM"}, "[8]": {"molecular_target": "Protein phosphatase 3 catalytic subunit alpha (Homo sapiens) (UniProt Q08209)", "assay": "Inhibition of human calcineurin activity in PMA/ionomycin-induced human Jurkat cells measured after 44 hrs by Malachite green dye based fast green assay", "conditions": "dose 1-100 µM"}, "[9]": {"tested_on": "Splenocyte", "assay": "Cytotoxicity against mouse splenocytes assessed as cell survival at 1 to 30 uM measured after 48 hrs by CCK-8 assay relative to control", "format": "functional", "conditions": "dose 1-30 µM"}, "[10]": {"tested_on": "Jurkat", "assay": "Cytotoxicity against human Jurkat cells assessed as cell survival at 75 to 100 uM measured after 48 hrs by MTT assay relative to control", "format": "functional", "conditions": "dose 75-100 µM"}}}
{"compound": "CC1=CC(=O)CC(C)(C)[C@@]1(O)/C=C/[C@@H](C)O", "note": "[BLUMENOL A]", "values": [{"measurement": "Activity", "setting": "[1]", "result": "<90", "unit": "%"}, {"measurement": "Activity", "setting": "[2]", "result": ">90", "unit": "%"}, {"measurement": "Activity", "setting": "[3]", "result": "Dose-Dependent Effect"}, {"measurement": "IC50", "setting": "[3]", "result": 20.2, "unit": "µM"}, {"measurement": "Activity", "setting": "[4]", "result": "Dose-Dependent Effect"}, {"measurement": "IC50", "setting": "[4]", "result": 18.7, "unit": "µM"}, {"measurement": "IC50", "setting": "[5]", "result": 15.1, "unit": "µM"}, {"measurement": "Activity", "setting": "[6]", "result": "Dose-Dependent Effect"}, {"measurement": "Activity", "setting": "[7]", "result": "Dose-Dependent Effect"}, {"measurement": "Activity", "setting": "[8]", "result": "Dose-Dependent Effect"}, {"measurement": "Activity", "setting": "[9]", "result": ">90", "unit": "%"}, {"measurement": "Activity", "setting": "[10]", "result": "<90", "unit": "%"}]}
